Measurements from article PMC11035414, “A comparison study of dynamic [^18F]Alfatide II imaging and [^11C]MET in orthotopic rat models of glioblastoma” (Journal of Cancer Research and Clinical Oncology, 2024).

Columns and labels:
[1] = test system: orthotopic GBM rat models (C6 glioma cells); assay: Dynamic PET/MR imaging, semi-quantitative analysis (SUVmean, TNR, time-activity curves); details: in vivo
Protocol: C6 glioma cells from GuYan Biotech Co., Ltd. (Shanghai, China) were cultured in DMEM at 37 °C and 5% CO2. After two generations of cell culture, C6 cells were trypsinized and resuspended at the concentration of 1 × 10^7 cells/mL to prepare GBM model. […] After the hair on the top of the head was cut off, a small hole with a diameter of about 2 mm was drilled at the intersection of the left side of sagittal suture 3 mm and the front side of coronal suture 1 mm. […] After administering the injection, the syringe was carefully withdrawn. The burr hole was then sealed with bone wax, followed by suturing the skin closed. […] Simultaneous dynamic PET and MRI was performed with 150 mm field of view for whole-body mouse imaging. For [^18[…] imaging, the rat models received the intravenous bolus injection of 13.0 ± 2.1 MBq of the radiotracer. […] We conducted [^11C]MET and [^18[…] scans on 20 rats, with a time interval of no more than 48 h between the scans using the two tracers. […] On the PET image with both radiotracers, the MRI-based volume-of-interest (VOI) was manually delineated encompassing glioblastoma. […] The following parameters were extracted from TACs: time to peak (TTP) and slope of curve.

[2] = test system: C6 glioblastoma-bearing rats; assay: Ex vivo biodistribution study (γ counter); details: rat, in vivo
Protocol: Biodistribution study: […] The tumors and major tissue organs (blood, brain, heart, lungs, liver, spleen, blander, kidneys, bowel, muscle, femur and tumor) were collected. Tissues and organs were washed with normal saline and dried, and weighed using an electronic scale. The radioactivity counts of tissues and organs were measured with a γ counter, and the corresponding radioactivity value (%ID/g) was calculated after time attenuation correction.

SUVmean in contralateral normal brain tissue [1]: 0.39 ± 0.12
tumor-to-normal brain ratio (TNR) [1]: 2.91 ± 0.81
normal organ(s) with the highest uptake, ex vivo [2]: liver
Structure (SMILES): [11CH3]SCC[C@H](N)C(=O)O [[^11C]MET, [^11C]methionine]
